For one series, the system named is Enterococcus faecalis. Nature of the series: Antimicrobial activity against vancomycin-resistant Enterococcus faecalis 1528 R10 by agar diffusion assay. The class given is functional, organism-based.
Series [1] deals with Staphylococcus aureus. Nature of the series: Antimicrobial activity against Staphylococcus aureus 511 B3 by agar diffusion assay. The series is classed as functional, organism-based. Background: Agar diffusion results depend on both activity and mobility in agar.
Another series relates to THP-1. Nature of the series: Antiproliferative activity against human THP1 cells assessed as inhibition of cell growth. The series is classed as functional.
Another series deals with Escherichia coli. As to the kind of experiment: Antimicrobial activity against Escherichia coli 458 B4 by agar diffusion assay. The class given is functional, organism-based.
The subject of series [2] is Sporobolomyces salmonicolor. Nature of the series: Antimicrobial activity against Sporidiobolus salmonicolor 549 H4 by agar diffusion assay. The class given is functional, organism-based.
A further series concerns HEK293. As to the kind of experiment: Antiproliferative activity against human HEK293 cells assessed as inhibition of cell growth. The class given is functional.
For a further series, the system named is HeLa. As to the kind of experiment: Cytotoxicity against human HeLa cells. The series is classed as functional.
Series [3] relates to Staphylococcus aureus. Nature of the series: Antimicrobial activity against methicillin-resistant Staphylococcus aureus 134/93R9 by agar diffusion assay. The series is classed as functional, organism-based.
In a further series the test system is Candida albicans. As to the kind of experiment: Antimicrobial activity against Candida albicans H8 by agar diffusion assay. The class given is functional, organism-based.
The next series has as its system Mycolicibacterium vaccae. As to the kind of experiment: Antimicrobial activity against Mycobacterium vaccae 10670 M4 by agar diffusion assay. The class given is functional, organism-based.
The test system of a further series is K562. Nature of the series: Antiproliferative activity against human K562 cells assessed as inhibition of cell growth. The series is classed as functional.
In another series the test system is Raji. As to the kind of experiment: Antiproliferative activity against human Raji cells assessed as inhibition of cell growth. The class given is functional.
In the next series the test system is HepG2. Nature of the series: Antiproliferative activity against human HepG2 cells assessed as inhibition of cell growth. The series is classed as functional.
Another series concerns Pseudomonas aeruginosa. As to the kind of experiment: Antimicrobial activity against Pseudomonas aeruginosa SG137 B7 by agar diffusion assay. The series is classed as functional, organism-based.
Another series deals with Penicillium chrysogenum. As to the kind of experiment: Antimicrobial activity against Penicillium notatum JP36 P1 by agar diffusion assay. The series is classed as functional, organism-based.
The subject of the next series is MCF7. As to the kind of experiment: Antiproliferative activity against human MCF7 cells assessed as inhibition of cell growth. The series is classed as functional.
Series [4] in a line: Antiproliferative activity against HUVEC assessed as inhibition of cell growth. The series is classed as cell-based. The conditions noted are these: human, HUVEC cells.
The subject of the next series is Bacillus subtilis. As to the kind of experiment: Antimicrobial activity against Bacillus subtilis 6633 B1 by agar diffusion assay. The series is classed as functional, organism-based.

Usually GI50 stands for the concentration that inhibits growth by half. A word on the CC50: it is the concentration that lowers cell viability or growth by half. A low value points to greater toxicity to the cells.

The source made the active and inactive calls. The calls are words filed in the database; no cut-off is given here. A value given as a limit tells only on which side of the number the result lay.

On to `O=C(CO)Nc1cc2nc3cc(CO)ccc3oc-2cc1=O` [CHANDRANANIMYCIN D], for which the result (in the series with Enterococcus faecalis; in the series on Staphylococcus aureus [1]; in the series on Escherichia coli; in [2]; in the series on Staphylococcus aureus [3]; in the series on Candida albicans) was inactive. The outcome in the series with Mycolicibacterium vaccae, in the series on Pseudomonas aeruginosa, in the series with Penicillium chrysogenum and with Bacillus subtilis was inactive. The GI50 in the series with THP-1 was 27.6 µM; in the series on HEK293, 10.3 µM; in the series on K562, 16.6 µM; with Raji, 9.6 µM; with HepG2, 6.6 µM; in the series on MCF7, 1300 nM. In addition, the GI50 in series [4] was 5.3 µM. In addition, the midpoint of cytotoxicity in the series on HeLa, the CC50, lay at 90.6 µM.

Turning to `CC(=O)N[C@@H](CSc1c2nc3cc(C(=O)O)ccc3oc-2cc(=O)c1N)C(=O)O` [GRIXAZONE B], the cytotoxic concentration (CC50) in the series on HeLa is above 120 µM. Further, the GI50 is above 76.4 µM in the series on K562 and above 120 µM in series [4].

Regarding `NC(=O)C1=C(N)[C@@H](O)[C@H](O)[C@@H](Nc2cc3nc4cc(CO)ccc4oc-3cc2=O)C1=O` [PITUCAMYCIN], the outcome (in the series on Enterococcus faecalis; in the series on Staphylococcus aureus [1]; in the series on Escherichia coli; in [2]; with Staphylococcus aureus [3]; in the series with Candida albicans) was inactive. The outcome in the series with Mycolicibacterium vaccae, with Pseudomonas aeruginosa, in the series on Penicillium chrysogenum and in the series with Bacillus subtilis was inactive. In the series on HeLa, this compound showed a CC50 of 74.8 µM. Also, the GI50 with K562 amounted to 27.6 µM; in series [4] it was 36.6 µM.
